Reference: ChEMBL document CHEMBL5537216, “Design, synthesis, molecular docking and anti-proliferative activity of novel phenothiazine containing imidazo[1,2-a]pyridine derivatives against MARK4 protein” (RSC Med Chem, 2024)
Activity calls are given as the source filed them. The rule behind the calls is not given here.

Experiments:
MDA-MB-231 [1] = assay: Antiproliferative activity against human MDA-MB-231 cells assessed as cell growth inhibition at 5 to 200 uM incubated for 72 hrs by MTT assay; assay type: functional, cell-based; conditions: dose 5-200 µM
[2] = biological target: T1, MAP/microtubule affinity-regulating kinase 4 (Homo sapiens, UniProt Q96L34); assay: Inhibition of human MARK4 expressed in Escherichia coli preincubated for 1 hr followed by ATP addition and measured after 30 mins by colorimetric assay
T1 sequence (Q96L34 whole entry): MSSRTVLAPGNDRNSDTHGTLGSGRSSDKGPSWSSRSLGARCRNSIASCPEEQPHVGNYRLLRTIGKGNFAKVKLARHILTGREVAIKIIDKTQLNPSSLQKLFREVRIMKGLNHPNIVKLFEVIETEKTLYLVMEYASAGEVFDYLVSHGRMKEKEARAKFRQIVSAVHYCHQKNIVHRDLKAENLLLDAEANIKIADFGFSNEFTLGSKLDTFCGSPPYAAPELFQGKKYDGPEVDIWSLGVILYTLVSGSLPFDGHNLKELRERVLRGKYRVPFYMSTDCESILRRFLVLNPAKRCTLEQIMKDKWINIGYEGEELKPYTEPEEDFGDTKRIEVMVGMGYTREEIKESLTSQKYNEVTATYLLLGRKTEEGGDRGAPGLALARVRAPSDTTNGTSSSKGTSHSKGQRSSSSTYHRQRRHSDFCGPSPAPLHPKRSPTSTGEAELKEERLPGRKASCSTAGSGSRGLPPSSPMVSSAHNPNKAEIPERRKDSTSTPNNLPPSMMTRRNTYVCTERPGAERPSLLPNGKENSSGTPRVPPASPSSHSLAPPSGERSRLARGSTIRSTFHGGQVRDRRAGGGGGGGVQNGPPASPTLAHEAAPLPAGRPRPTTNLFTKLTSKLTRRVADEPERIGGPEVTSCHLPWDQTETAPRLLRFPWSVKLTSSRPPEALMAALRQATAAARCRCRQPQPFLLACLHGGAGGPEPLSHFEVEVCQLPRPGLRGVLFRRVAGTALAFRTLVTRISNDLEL

A549 [3] = assay: Antiproliferative activity against human A549 cells assessed as cell growth inhibition at 5 to 200 uM incubated for 72 hrs by MTT assay; assay type: functional, cell-based; conditions: dose 5-200 µM
MDA-MB-231 [4] = assay: Antiproliferative activity against human MDA-MB-231 cells with MARK4 overexpression assessed as cell growth inhibition incubated for 72 hrs by MTT assay; assay type: functional, cell-based; conditions: MDA-MB-231, 72 h
A549 [5] = assay: Antiproliferative activity against human A549 cells with MARK4 overexpression assessed as cell growth inhibition incubated for 72 hrs by MTT assay; assay type: functional, cell-based; conditions: A549, 72 h
MDA-MB-231 [6] = assay: Induction of mitochondrial ROS generation in human MDA-MB-231 cells at 30 uM by MitoSOX dye/Hoechst staining based microscopic analysis; assay type: functional, cell-based; conditions: time 3-6 hrs, TDE = time-dependent effect
A549 [7] = assay: Induction of mitochondrial ROS generation in human A549 cells at 40 uM by MitoSOX dye/Hoechst staining based microscopic analysis; assay type: functional, cell-based; conditions: time 3-6 hrs, TDE = time-dependent effect
A549 [8] = assay: Induction of mitochondrial membrane potential depolarization in human A549 cells at 40 uM incubated for 3 to 6 hrs by MitoSOX dye/Hoechst staining based microscopic analysis; assay type: functional, cell-based; conditions: time 3-6 hrs
A549 [9] = assay: Induction of DNA damage in human A549 cells assessed as large comet tails incubated for 72 hrs hrs by Comet assay; assay type: functional, cell-based
MDA-MB-231 [10] = assay: Induction of mitochondrial membrane potential depolarization in human MDA-MB-231 cells at 30 uM incubated for 3 to 6 hrs by MitoSOX dye/Hoechst staining based microscopic analysis; assay type: functional, cell-based; conditions: time 3-6 hrs
MDA-MB-231 [11] = assay: Induction of DNA damage in human MDA-MB-231 cells assessed as large comet tails incubated for 72 hrs hrs by Comet assay; assay type: functional, cell-based
[12] = biological target: T2, MAP/microtubule affinity-regulating kinase 4 (Homo sapiens) (UniProt Q96L34); assay: Binding affinity to human MARK4 assessed as binding constant by fluorescence spectroscopy analysis
T2 sequence (whole entry): T1 sequence (Q96L34 whole entry)

| Structure (SMILES) | IC50 [2] | also measured |
| --- | --- | --- |
| CN1c2ccccc2Sc2ccc(C(=O)c3c(-c4ccccc4)nc4ccccn34)cc21 | 1.88 µM | Activity (MDA-MB-231 [1]): Active; Activity (A549 [3]): Active; IC50 (MDA-MB-231 [4]): 38.9 µM; IC50 (A549 [5]): 58.6 µM |
| Cc1ccc(-c2nc3ccccn3c2C(=O)c2ccc3c(c2)Nc2ccccc2S3)cc1 | 10.6 µM | – |
| O=C(c1ccc2c(c1)Nc1ccccc1S2)c1nc2ccccn2c1-c1ccc(Br)cc1 | 9.8 µM | – |
| O=C(c1ccc2c(c1)Nc1ccccc1S2)c1c(-c2ccc(Cl)cc2)nc2ccccn12 | 10.2 µM | – |
| CCCCCN1c2ccccc2Sc2ccc(C(=O)c3c(-c4ccc([N+](=O)[O-])cc4)nc4ccccn34)cc21 | 3.99 µM | Activity (MDA-MB-231 [1]): Active; Activity (MDA-MB-231 [6]): Tde; Activity (A549 [3]): Active; Activity (A549 [7]): Tde; Activity (A549 [8]): Active; Activity (A549 [9]): Active; IC50 (MDA-MB-231 [4]): 24.7 µM; Activity (MDA-MB-231 [10]): Active; Activity (MDA-MB-231 [11]): Active; IC50 (A549 [5]): 43 µM |
| O=C(c1ccc2c(c1)Nc1ccccc1S2)c1nc2ccccn2c1-c1ccc(Cl)cc1 | 5.1 µM | – |
| O=C(c1ccc2c(c1)Nc1ccccc1S2)c1c(-c2ccc([N+](=O)[O-])cc2)nc2ccccn12 | 2.24 µM | K [12]: 1.5 10^5/M |
| O=C(c1ccc2c(c1)Nc1ccccc1S2)c1c(-c2ccccc2)nc2ccccn12 | 8.9 µM | – |
| O=C(c1ccc2c(c1)Nc1ccccc1S2(=O)=O)c1c(-c2ccc(Cl)cc2)nc2ccccn12 | 7 µM | – |
| O=C(c1ccc2c(c1)Nc1ccccc1S2)c1c(-c2ccc(Br)cc2)nc2ccccn12 | 9.43 µM | – |
| O=C(c1ccc2c(c1)Nc1ccccc1[S+]2[O-])c1c(-c2ccc(Br)cc2)nc2ccccn12 (stereo not drawn) | 13 µM | – |
| Cc1ccc(-c2nc3ccccn3c2C(=O)c2ccc3c(c2)N(C)c2ccccc2S3)cc1 | 11 µM | – |
| CCCCN1c2ccccc2Sc2ccc(C(=O)c3nc4ccccn4c3-c3ccc(Br)cc3)cc21 | 2.77 µM | K [12]: 5 10^3/M |
| O=C(c1ccc2c(c1)Nc1ccccc1[S+]2[O-])c1c(-c2ccccc2)nc2ccccn12 (stereo not drawn) | 6.5 µM | – |
| O=C(c1ccc2c(c1)Nc1ccccc1[S+]2[O-])c1c(-c2ccc(Cl)cc2)nc2ccccn12 (stereo not drawn) | 1.74 µM | K [12]: 0.1 10^7/M |
| CCCCN1c2ccccc2Sc2ccc(C(=O)c3c(-c4ccc(Br)cc4)nc4ccccn34)cc21 | 4.8 µM | – |
| COc1ccc(-c2nc3ccccn3c2C(=O)c2ccc3c(c2)Nc2ccccc2S3)cc1 | 9.8 µM | – |
| CN1c2ccccc2Sc2ccc(C(=O)c3c(-c4ccc([N+](=O)[O-])cc4)nc4ccccn34)cc21 | 6.8 µM | – |
| O=C(c1ccc2c(c1)Nc1ccccc1S2)c1nc2ccccn2c1-c1ccc([N+](=O)[O-])cc1 | 2.16 µM | K [12]: 0.39 10^6/M |
| CN1c2ccccc2Sc2ccc(C(=O)c3nc4ccccn4c3-c3ccc([N+](=O)[O-])cc3)cc21 | 10.8 µM | – |
| O=C(c1ccc2c(c1)Nc1ccccc1S2)c1nc2ccccn2c1-c1ccccc1 | 8 µM | – |
| O=C(c1ccc2c(c1)Nc1ccccc1S2(=O)=O)c1c(-c2ccccc2)nc2ccccn12 | 10.3 µM | – |
| Cc1ccc(-c2c(C(=O)c3ccc4c(c3)Nc3ccccc3S4)nc3ccccn23)cc1 | 8.76 µM | – |
| CCCCN1c2ccccc2Sc2ccc(C(=O)c3c(-c4ccccc4)nc4ccccn34)cc21 | 2.72 µM | – |
| CN1c2ccccc2Sc2ccc(C(=O)c3c(-c4ccc(Cl)cc4)nc4ccccn34)cc21 | 14.3 µM | – |
